Like-named read-outs stand apart in the source and are kept apart here. Values belong to the compound of their own block, whether it stands above or below them.
Assays:
[1] = system: Sprague-Dawley rats; experiment: Carrageenan-induced paw edema model (anti-inflammatory activity); format: in vivo; settings: ip, dose 10 mg/kg, four independent experiments
Method: Anti-inflammatory activity was studied in Sprague-Dawley rats (3 male and 3 female animals per group) by using the common carrageenan-induced paw edema model. The investigated compounds in 1% starch mucilage were intraperitoneally administered at the corresponding dose to a treated group of rodents 30 min before the injection of 0.1 mL of freshly prepared 1% carrageenan (λ-carrageenan, type IV; Sigma Aldrich, an affiliate of Merck KGaA, Darmstadt, Germany) solution in the right hind paw plantar surface. The negative control group was treated with 1% starch mucilage solution only. Diclofenac sodium (10 mg/kg in 1% starch mucilage solution) was used as a reference drug. Paw volumes were measured oncometrically with water plethysmometer (TSE Volume Meter, Bad Homburg, Germany) before carrageenan administration (“zero time”) and at 1st, 3rd, 5th and 24th h after its injection. An anti-inflammatory activity of the sample at a certain time point was calculated in two steps. First, the percentage of an edema increment (i.e., relative volume change for the inflamed paw vs. “zero time” value) both in the negative control group (Pc) and in the treated group (Ptr) were calculated for this time point for each animal. The difference between treated and control group was considered significant at p < 0.05. Then, for such cases, swelling inhibition was calculated according to the formula: 100% (Pc − Ptr)/Pc and considered as a measure of anti-inflammatory activity of the sample.

[2] = system: Sprague-Dawley (SD) rats; experiment: Hot plate test (analgesic activity); format: in vivo; settings: Rattus norvegicus, hot plate test, rats, ip, dose 10 mg/kg, eight independent experiments
How it was run: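 Test compounds were given i.p. as suspensions in 1% starch mucilage to SD rats (3 male, 3 female per group), vehicle as negative control. At 1 and 2 h post-dose, latency to nociceptive response (jumping, hind paw licking/shaking) on a 50 °C plate was recorded, 30 s cutoff.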

[3] = target: T1, ratTRPV1 (rTRPV1) (Rattus norvegicus, UniProt O35433); experiment: TRPV1 calcium imaging in CHO cells (acid / 2APB activation); format: cell-based; settings: 50 μM
T1 construct: expressed in transfected cells
Method: Testing for receptors ratTRPA1 (rTRPA1) and ratTRPV1 (rTRPV1), stably expressed in CHO cells, was carried out using the calcium imaging method as described in [123, 124]. Fluorescence was performed using NOVOstar (BMG LABTECH, Ortenberg, Germany). The tested substances in 26% DMSO solution or 26% DMSO solution alone (negative control) (5 μL) were added to the cells loaded with the cytoplasmic calcium indicator Fluo-4AM using Fluo-4 Direct™ Calcium Assay Kit (Thermo Fisher Scientific Inc., Waltham, MA, USA) (60 μL) and incubated 5–10 min. Final DMSO concentration was 2%. Changes in cell fluorescence (λex = 485 nm, λem = 520 nm) were monitored at 25 °C before and after the addition of relevant agonist. The AITC final concentration 160 μM was used for rTRPA1 activation. For rTRPV1 activation we used (1) acid-salt buffer pH4.01 (diluted 2 times Buffer solution pH 4.01 (Mettler Toledo, Greifensee, Switzerland) containing 150 mM NaCl), (2) 2APB in 10 mM HEPES/HBSS, pH 7.4—final concentration 160 μM, or (3) 2APB in acid-salt buffer pH 4.01—final concentration 80 μM. Nonspecificity was tested on wild type CHO.
To achieve the required level of acidification, the cell medium with fluorescent dye (pH 7.4) was pre-titrated to determine the required volume of acid-salt buffer until pH 6.2 was reached. The pH level was also monitored after the test as an average of 10–12 wells. […]

T1 sequence (O35433 whole entry): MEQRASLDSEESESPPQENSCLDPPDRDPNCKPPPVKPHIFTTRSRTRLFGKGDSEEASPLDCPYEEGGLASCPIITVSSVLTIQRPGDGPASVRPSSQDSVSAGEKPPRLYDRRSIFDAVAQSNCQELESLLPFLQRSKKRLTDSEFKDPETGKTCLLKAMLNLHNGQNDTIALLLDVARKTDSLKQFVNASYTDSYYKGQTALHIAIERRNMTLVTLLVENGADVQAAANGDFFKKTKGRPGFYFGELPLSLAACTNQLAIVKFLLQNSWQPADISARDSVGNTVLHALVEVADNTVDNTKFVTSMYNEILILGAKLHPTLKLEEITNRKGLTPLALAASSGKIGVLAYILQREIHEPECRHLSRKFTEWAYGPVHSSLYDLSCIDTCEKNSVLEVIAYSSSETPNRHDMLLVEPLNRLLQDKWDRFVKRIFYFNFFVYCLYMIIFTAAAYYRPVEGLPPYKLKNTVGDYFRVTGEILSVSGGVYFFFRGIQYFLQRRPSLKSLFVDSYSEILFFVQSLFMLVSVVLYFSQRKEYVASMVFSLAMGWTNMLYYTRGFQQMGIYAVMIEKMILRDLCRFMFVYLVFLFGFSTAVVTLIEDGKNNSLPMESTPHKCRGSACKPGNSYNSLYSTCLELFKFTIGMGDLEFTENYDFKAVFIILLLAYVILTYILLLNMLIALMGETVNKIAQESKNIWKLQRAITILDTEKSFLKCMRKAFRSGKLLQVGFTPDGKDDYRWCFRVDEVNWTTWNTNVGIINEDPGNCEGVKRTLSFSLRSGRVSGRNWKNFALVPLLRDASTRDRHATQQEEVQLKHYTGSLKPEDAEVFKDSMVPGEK

- melting point: 165 to 166 °C
Compound: Cc1ccc(N/N=C2\C(=O)N(c3ccc(C)cc3)N=C2C(F)(F)C(F)(F)F)cc1

Compound: O=C(O)Cc1ccccc1Nc1c(Cl)cccc1Cl [Diclofenac, reference compound]
- Inhibition of Paw Edema Development Comparing to Control, after 1 h [1]: 35.6 ± 5.8 ^1%
- Inhibition of Paw Edema Development Comparing to Control, after 3 h [1]: 54.3 ± 12.1 ^1%
- Inhibition of Paw Edema Development Comparing to Control, after 5 h [1]: 46.2 ± 13.2 ^1%
- change in vivo at 10 mg/kg ([2]; 1 h, read-out: Latent Period Prolongation, % 1 h): 63.5 ± 18.2%
- change in vivo at 10 mg/kg ([2]; 2 h, read-out: Latent Period Prolongation, % 2 h): 70 ± 20.8%

Compound: Oc1cc2c(cc1O)CN(C(=S)NCCc1ccc(Cl)cc1)CCC2 [capsazepine]
- inhibition of the increase in intracellular Ca2+ (TRPV1 activation by acidic solution or 160 μM 2APB) [3]: effectively inhibited

Source: paper PMC9821843, “Powerful Potential of Polyfluoroalkyl-Containing 4-Arylhydrazinylidenepyrazol-3-ones for Pharmaceuticals” (Molecules, 2022)
